Test results published in patent US20100151039A1, “SKIN MOISTURIZING AGENT FOR ORAL INTAKE AND FUNCTIONAL FOODS AND DRINKS” (CALPIS CO., LTD., priority 2003, published 2010).

Columns and labels:
[1] = test system: serine palmitoyl transferase (SPT) mRNA; assay: Ability to promote synthesis of SPT: RT-PCR of SPT mRNA in normal human epidermic cells; conditions: 0.63 v/v % in medium, 24 hours; relative value, control = 100, standardized to cyclophilin mRNA
Method: (§1) A 35 mm culture dish was seeded with the epidermic cells at a cell concentration of 5×10^5 cells per dish, and subjected to culture for 24 hours.
(§2) (2) After the culture, the cells were washed with PBS (−), and lysed with 500 μl, per dish of TRIzol reagent (trade name, manufactured by Gibco BRL). 100 μL per dish of chloroform was added and mixed thoroughly. The supernatant aqueous phase was recovered by centrifugation, and RNAs were precipitated with 2-propanol to obtain the total RNAs. The obtained total RNAs were washed with 75% cold ethanol, and dissolved in diethyl pyrocarbonate (DEPC)-treated water.
(§3) (3) 1 μg of the RNAs dissolved in DEPC-treated water was subjected to RT-PCR using One step RT-PCR kit (trade name, manufactured by Qiagen) in accordance with its protocol under the conditions and with the primers shown in Table 2, to reverse transcript and amplify the cDNA corresponding to serine palmitoyl transferase (SPT) mRNA, filaggrin mRNA, or cyclophilin RNA.
(§4) (4) After the reaction, the reaction product was fractionated by 1% agarose gel electrophoresis. The electrophoresis gel was stained with ethidium bromide, and photographed under UV irradiation on a transilluminator, to determine the band intensity.
The test was conducted twice.

filaggrin mRNA = assay: Ability to promote synthesis of filaggrin: RT-PCR of filaggrin mRNA in normal human epidermic cells; conditions: 0.63 v/v % in medium, 24 hours; relative value, control = 100, standardized to cyclophilin mRNA
Method: as §1, §2, §3, §4
The test was conducted twice.

CC(O)C(=O)O (stereo not shown) [lactic acid]
Effect on expression of SPT mRNA of normal human epidermic cells, 1st Test [1]: 91
Effect on expression of SPT mRNA of normal human epidermic cells, 2nd Test [1]: 111
Effect on expression of filaggrin mRNA of normal epidermic cells, 1st Test (filaggrin mRNA): 15
Effect on expression of filaggrin mRNA of normal epidermic cells, 2nd Test (filaggrin mRNA): 132
